Measurements published in ChEMBL document CHEMBL1136787, “Design, synthesis, and biological evaluation of monopyrrolinone-based HIV-1 protease inhibitors” (J Med Chem, 2003).

Tests used:
[1] = molecular target: T1, Human immunodeficiency virus type 1 protease (Human immunodeficiency virus 1, UniProt Q72874); assay: Inhibitory activity against HIV-1 protease was determined
[2] = system: Human immunodeficiency virus 1; assay: Anti-viral activity was determined; assay type: functional; conditions: read-out: CIC95
[3] = Ratio (CIC95/IC50) of cellular antiviral activity over the isolated enzyme potency; assay type: functional
[4] = molecular target: T1, Human immunodeficiency virus type 1 protease; assay: Inhibitory activity against HIV-1 protease mutant was determined

IC50 [1] [nM]	SMILES	IC95 [2] [nM]	C/I [3]	IC50 [4] [nM]
1.3	CC(C)C[C@@]1(C2=C(O)[C@](Cc3ccccc3)(C[C@H](O)[C@H](Cc3ccccc3)NC(=O)OC3CCOC3)N=C2)N=CC([C@@H](Cc2ccccc2)C(N)=O)=C1O (single isomer, unassigned; (-))	800	–	–
–	O=C(N[C@@H](Cc1ccccc1)[C@@H](O)C[C@]1(Cc2ccccc2)N=CC(C2CNC(=O)c3ccccc32)=C1O)O[C@H]1CCOC1 (single isomer, unassigned; (+))	781	137	–
–	CC(C)(C)NC(=O)[C@@H]1CN(Cc2cccnc2)CCN1C[C@@H](O)C[C@@H](Cc1ccccc1)C(=O)N[C@H]1c2ccccc2C[C@H]1O.O	25	69	–
–	CC(C)(C)OC(=O)N[C@@H](Cc1ccccc1)[C@@H](O)C[C@@H](Cc1ccccc1)C(=O)N[C@H]1c2ccccc2C[C@H]1O	400	1333	–
–	CC(C)(C)OC(=O)N[C@@H](Cc1ccccc1)[C@@H](O)C[C@]1(Cc2ccccc2)N=CC(C2c3ccccc3C[C@H]2O)=C1O (single isomer, unassigned; (-))	800	–	–
–	O=C(N[C@@H](Cc1ccccc1)[C@@H](O)C[C@]1(Cc2ccccc2)N=CC(C2c3ccccc3C[C@H]2O)=C1O)O[C@H]1CCOC1 (single isomer, unassigned; (-))	100	–	129
–	O=C(N[C@@H](Cc1ccccc1)[C@@H](O)C[C@@H](Cc1ccccc1)C(=O)N[C@H]1c2ccccc2C[C@H]1O)OC1CCOC1 (stereo partly drawn)	3	100	–
10	CC(C)C[C@@]1(C2=C(O)[C@](Cc3ccccc3)(C[C@H](O)[C@H](Cc3ccccc3)NC(=O)OC(C)(C)C)N=C2)N=CC([C@@H](Cc2ccccc2)C(N)=O)=C1O	1500	–	–
–	NC(=O)O[C@@H]1Cc2ccccc2C1C1=C(O)[C@](Cc2ccccc2)(C[C@H](O)[C@H](Cc2ccccc2)NC(=O)O[C@H]2CCOC2)N=C1 (single isomer, unassigned; (-))	250	125	364
